PubChem BioAssay (NCI)
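Assay format: 96-well plates, 48-hour exposure. GI50: concentration for 50% inhibition of growth. Definition used: TGI = concentration required for complete inhibition of growth.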

What was measured:
Test in all cases: DTP human tumour cell line panel, 48 h
SF-268 CNS = test system: SF-268 CNS
COLO 205 colon = test system: COLO 205 colon
HCT-15 colon = test system: HCT-15 colon
IGROV1 ovarian = test system: IGROV1 ovarian
T-47D breast = test system: T-47D breast
UO-31 renal = test system: UO-31 renal
SK-OV-3 ovarian = test system: SK-OV-3 ovarian
BT-549 breast = test system: BT-549 breast
SK-MEL-28 melanoma = test system: SK-MEL-28 melanoma
SN12C renal = test system: SN12C renal
NCI-H522 lung = test system: NCI-H522 lung
UACC-62 melanoma = test system: UACC-62 melanoma
HT29 colon = test system: HT29 colon
K-562 leukemia = test system: K-562 leukemia
EKVX NSCLC = test system: EKVX NSCLC
HOP-92 NSCLC = test system: HOP-92 NSCLC
OVCAR-4 ovarian = test system: OVCAR-4 ovarian
MCF7 breast = test system: MCF7 breast
PC-3 prostate = test system: PC-3 prostate
A549 NSCLC = test system: A549 NSCLC
786-0 renal = test system: 786-0 renal
SK-MEL-5 melanoma = test system: SK-MEL-5 melanoma
CAKI-1 renal = test system: CAKI-1 renal
KM12 colon = test system: KM12 colon
OVCAR-8 ovarian = test system: OVCAR-8 ovarian
SF-539 CNS = test system: SF-539 CNS
RPMI-8226 leukemia = test system: RPMI-8226 leukemia
TK-10 renal = test system: TK-10 renal
HL-60(TB) leukemia = test system: HL-60(TB) leukemia
HS 578T breast = test system: HS 578T breast
MDA-MB-435 = test system: MDA-MB-435
CCRF-CEM leukemia = test system: CCRF-CEM leukemia
SW-620 colon = test system: SW-620 colon
RXF 393 renal = test system: RXF 393 renal
U251 CNS = test system: U251 CNS
DU-145 prostate = test system: DU-145 prostate
MALME-3M melanoma = test system: MALME-3M melanoma
NCI-H23 lung = test system: NCI-H23 lung
A498 renal = test system: A498 renal
HCT-116 colon = test system: HCT-116 colon
SK-MEL-2 melanoma = test system: SK-MEL-2 melanoma
OVCAR-5 ovarian = test system: OVCAR-5 ovarian
NCI-H226 lung = test system: NCI-H226 lung
ACHN renal = test system: ACHN renal
OVCAR-3 ovarian = test system: OVCAR-3 ovarian
NCI/ADR-RES ovarian = test system: NCI/ADR-RES ovarian
HOP-62 NSCLC = test system: HOP-62 NSCLC
SNB-75 CNS = test system: SNB-75 CNS
LOX IMVI melanoma = test system: LOX IMVI melanoma
M14 melanoma = test system: M14 melanoma
SNB-19 CNS = test system: SNB-19 CNS
UACC-257 melanoma = test system: UACC-257 melanoma
NCI-H460 lung = test system: NCI-H460 lung
MDA-MB-231 breast = test system: MDA-MB-231 breast
HCC-2998 colon = test system: HCC-2998 colon
MOLT-4 leukemia = test system: MOLT-4 leukemia
SF-295 CNS = test system: SF-295 CNS

## O=c1c2c3c(sc2n2c(CCl)nnc2n1Cc1ccccc1)CCCC3
SF-268 CNS
  GI50: 1.83 µM
  TGI: 3.72 µM
COLO 205 colon
  GI50: 1.94 µM
  TGI: 4.05 µM
HCT-15 colon
  GI50: 1.86 µM
  TGI: 5.34 µM
IGROV1 ovarian
  GI50: 0.0645 µM
  TGI: 1.53 µM
T-47D breast
  GI50: 2.5 µM
  TGI: 6.5 µM
UO-31 renal
  GI50: 1.51 µM
  TGI: 2.88 µM
SK-OV-3 ovarian
  GI50: 13.4 µM
  TGI: 48.8 µM
BT-549 breast
  GI50: 2.41 µM
  TGI: 9.44 µM
SK-MEL-28 melanoma
  GI50: 1.7 µM
  TGI: 3.16 µM
SN12C renal
  GI50: 1.62 µM
  TGI: 3.86 µM
NCI-H522 lung
  GI50: 1.89 µM
  TGI: 4.17 µM
UACC-62 melanoma
  GI50: 1.99 µM
  TGI: 5.64 µM
HT29 colon
  GI50: 1.95 µM
  TGI: 4.05 µM
K-562 leukemia
  GI50: 2.33 µM
  TGI: 5.39 µM
EKVX NSCLC
  GI50: 7.96 µM
  TGI: 27.9 µM
HOP-92 NSCLC
  GI50: 1.83 µM
  TGI: 3.8 µM
OVCAR-4 ovarian
  GI50: 2.79 µM
  TGI: 7.74 µM
MCF7 breast
  GI50: 1.75 µM
  TGI: 4.54 µM
PC-3 prostate
  GI50: 1.85 µM
  TGI: 4.01 µM
A549 NSCLC
  GI50: 2.79 µM
  TGI: 7.3 µM
786-0 renal
  GI50: 2.01 µM
  TGI: 3.75 µM
SK-MEL-5 melanoma
  GI50: 2.94 µM
  TGI: 7.62 µM
CAKI-1 renal
  GI50: 2.9 µM
  TGI: 7.79 µM
KM12 colon
  GI50: 2.39 µM
  TGI: 6.05 µM
OVCAR-8 ovarian
  GI50: 2.28 µM
  TGI: 6.19 µM
SF-539 CNS
  GI50: 3.24 µM
  TGI: 10.1 µM
RPMI-8226 leukemia
  GI50: 1.97 µM
  TGI: 5.05 µM
TK-10 renal
  GI50: 5.25 µM
  TGI: 10.7 µM
HL-60(TB) leukemia
  GI50: 2.16 µM
  TGI: > 19.8 µM
HS 578T breast
  GI50: 1.92 µM
  TGI: 5.9 µM
MDA-MB-435
  GI50: 3.4 µM
  TGI: 11 µM
CCRF-CEM leukemia
  GI50: 0.434 µM
SW-620 colon
  GI50: 1.76 µM
  TGI: 3.51 µM
RXF 393 renal
  GI50: 1.98 µM
  TGI: 4.17 µM
U251 CNS
  GI50: 1.6 µM
  TGI: 3.03 µM
DU-145 prostate
  GI50: 2.45 µM
  TGI: 6.18 µM
MALME-3M melanoma
  GI50: 3.48 µM
  TGI: 10.7 µM
NCI-H23 lung
  GI50: 2.27 µM
  TGI: 8.43 µM
A498 renal
  GI50: 9.17 µM
  TGI: 23.1 µM
HCT-116 colon
  GI50: 1.51 µM
  TGI: 3.13 µM
SK-MEL-2 melanoma
  GI50: 1.53 µM
  TGI: 2.98 µM
OVCAR-5 ovarian
  GI50: 2.34 µM
  TGI: 5.23 µM
NCI-H226 lung
  GI50: 1.74 µM
  TGI: 4.37 µM
ACHN renal
  GI50: 1.6 µM
  TGI: 2.96 µM
OVCAR-3 ovarian
  GI50: 1.76 µM
  TGI: 3.21 µM
NCI/ADR-RES ovarian
  GI50: 3.84 µM
  TGI: > 51.1 µM
HOP-62 NSCLC
  GI50: 3.55 µM
  TGI: 7.87 µM
SNB-75 CNS
  GI50: 4.51 µM
  TGI: 9.03 µM
LOX IMVI melanoma
  GI50: 0.284 µM
  TGI: 1.32 µM
M14 melanoma
  GI50: 1.79 µM
  TGI: 5.43 µM
SNB-19 CNS
  GI50: 15.8 µM
  TGI: 32.1 µM
UACC-257 melanoma
  GI50: 2.12 µM
  TGI: 4.29 µM
NCI-H460 lung
  GI50: 2.58 µM
  TGI: 7.98 µM
MDA-MB-231 breast
  GI50: 2.22 µM
  TGI: 5.23 µM
HCC-2998 colon
  GI50: 1.74 µM
  TGI: 3.39 µM
MOLT-4 leukemia
  GI50: 3.62 µM
  TGI: 17.1 µM

## N#Cc1cc(-c2nc3cc(F)ccc3s2)ccc1N
SF-268 CNS
  TGI: > 78.3 µM
COLO 205 colon
  TGI: > 100 µM
HCT-15 colon
  TGI: > 100 µM
IGROV1 ovarian
  TGI: 13.9 µM
T-47D breast
  TGI: 0.22 µM
UO-31 renal
  TGI: > 100 µM
SK-OV-3 ovarian
  TGI: > 92.3 µM
BT-549 breast
  TGI: 29.1 µM
SK-MEL-28 melanoma
  TGI: > 100 µM
SN12C renal
  TGI: > 100 µM
NCI-H522 lung
  TGI: > 100 µM
UACC-62 melanoma
  TGI: > 87.7 µM
HT29 colon
  TGI: > 100 µM
K-562 leukemia
  TGI: > 100 µM
SF-295 CNS
  TGI: > 100 µM
EKVX NSCLC
  TGI: 98.8 µM
HOP-92 NSCLC
  TGI: 29.6 µM
OVCAR-4 ovarian
  TGI: > 93.5 µM
MCF7 breast
  TGI: 0.583 µM
PC-3 prostate
  TGI: > 100 µM
A549 NSCLC
  TGI: > 68.4 µM
786-0 renal
  TGI: > 100 µM
SK-MEL-5 melanoma
  TGI: > 100 µM
CAKI-1 renal
  TGI: > 100 µM
KM12 colon
  TGI: > 32.8 µM
OVCAR-8 ovarian
  TGI: > 100 µM
SF-539 CNS
  TGI: 56.7 µM
RPMI-8226 leukemia
  TGI: > 100 µM
TK-10 renal
  TGI: 1.69 µM
HL-60(TB) leukemia
  TGI: > 100 µM
HS 578T breast
  TGI: > 100 µM
MDA-MB-435
  TGI: > 100 µM
CCRF-CEM leukemia
  TGI: > 100 µM
SW-620 colon
  TGI: > 100 µM
RXF 393 renal
  TGI: 14.1 µM
U251 CNS
  TGI: > 82.1 µM
DU-145 prostate
  TGI: > 100 µM
MALME-3M melanoma
  TGI: > 100 µM
NCI-H23 lung
  TGI: 0.848 µM
A498 renal
  TGI: > 56.4 µM
HCT-116 colon
  TGI: > 100 µM
SK-MEL-2 melanoma
  TGI: > 66.8 µM
OVCAR-5 ovarian
  TGI: 2.9 µM
NCI-H226 lung
  TGI: 79.3 µM
ACHN renal
  TGI: 62.5 µM
OVCAR-3 ovarian
  TGI: > 100 µM
NCI/ADR-RES ovarian
  TGI: > 100 µM
HOP-62 NSCLC
  TGI: > 100 µM
SNB-75 CNS
  TGI: 6.68 µM
LOX IMVI melanoma
  TGI: > 100 µM
M14 melanoma
  TGI: 99.7 µM
SNB-19 CNS
  TGI: > 66.6 µM
UACC-257 melanoma
  TGI: > 100 µM
NCI-H460 lung
  TGI: 17.8 µM
MDA-MB-231 breast
  TGI: > 85.1 µM
HCC-2998 colon
  TGI: 0.0604 µM
MOLT-4 leukemia
  TGI: > 100 µM
